Laboratory results: patent US9452980B2, “Substituted benzamides” (Hoffmann-La Roche Inc., priority 2009, dated 2016)
Where a name gives a salt, the structure may show the parent alone. Read-outs that look alike come from different tables or passages of the source.

What was measured:
rat TAAR1 = rat TAAR1 (Rattus norvegicus (Rat), UniProt Q923Y9); experiment: Radioligand binding assay on rat TAAR1; conditions: read-out: Ki (μM) rat
Procedure: (§1) For the construction of expression plasmids the coding sequences of human, rat and mouse TAAR1 were amplified from genomic DNA essentially as described by Lindemann et al.. The Expand High Fidelity PCR System (Roche Diagnostics) was used with 1.5 mM Mg^2+ and purified PCR products were cloned into pCR2.1-TOPO cloning vector (Invitrogen) following the instructions of the manufacturer. PCR products were subcloned into the pIRESneo2 vector (BD Clontech, Palo Alto, Calif.), and expression vectors were sequence verified before introduction in cell lines.
(§2) HEK293 cells (ATCC #CRL-1573) were cultured essentially as described by Lindemann et al. (2005). For the generation of stably transfected cell lines HEK293 cells were transfected with the pIRESneo2 expression plasmids containing the TAAR coding sequences (described above) with Lipofectamine 2000 (Invitrogen) according to the instructions of the manufacturer, and 24 hrs post transfection the culture medium was supplemented with 1 mg/ml G418 (Sigma, Buchs, Switzerland). After a culture period of about 10 d clones were isolated, expanded and tested for responsiveness to trace amines (all compounds purchased from Sigma) with the cAMP Biotrak Enzyme immunoassay (EIA) System (Amersham) following the non-acetylation EIA procedure provided by the manufacturer.
Radioligand Binding Assay on Rat TAAR1
(§3) Membrane Preparation and Radioligand Binding.
(§4) HEK-293 cells stably expressing rat TAAR1 were maintained at 37° C. and 5% CO2 in DMEM high glucose medium, containing fetal calf serum (10%, heat inactivated for 30 min at 56° C.), penicillin/streptomycin (1%), and 375 μg/ml geneticin (Gibco). Cells were released from culture flasks using trypsin/EDTA, harvested, washed twice with ice-cold PBS (without Ca^2+ and Mg^2+), pelleted at 1,000 rpm for 5 min at 4° C., frozen and stored at −80° C. Frozen pellets were suspended in 20 ml HEPES-NaOH (20 mM, pH 7.4) containing 10 mM EDTA and homogenized with a Polytron (PT 6000, Kinematica) at 14,000 rpm for 20 s. The homogenate was centrifuged at 48,000×g for 30 min at 4° C. Subsequently, the supernatant was removed and discarded, and the pellet resuspended in 20 ml HEPES-NaOH (20 mM, pH 7.4) containing 0.1 mM EDTA using the Polytron (20 s at 14,000 rpm). This procedure was repeated and the final pellet resuspended in HEPES-NaOH containing 0.1 mM EDTA and homogenized using the Polytron. Typically, aliquots of 2 ml membrane portions were stored at −80° C. With each new membrane batch the dissociation constant (Kd) was determined via a saturation curve. […] Nonspecific binding was defined as the amount of ^3[H]—(S)-4-[(ethyl-phenyl-amino)-methyl]-4,5-dihydro-oxazol-2-ylamine bound in the presence of 10 μM unlabeled ligand. All compounds were tested at a broad range of concentrations (10 pM to 10 μM) in duplicates. […] The 96 deep well plates were incubated for 1 hr at 4° C. Incubations were terminated by rapid filtration through Unifilter-96 plates (Packard Instrument Company) and glass filters GF/C (Perkin Elmer) presoaked for 1 hr in polyethylenimine (0.3%) and washed 3 times with 1 ml of cold binding buffer. After addition of 45 μl of Microscint 40 (PerkinElmer) the Unifilter-96 plate was sealed and after 1 hr the ratioactivity counted using a TopCount Microplate Scintillation Counter (Packard Instrument Company).

mouse TAAR1 = mouse TAAR1 (Mus musculus (Mouse), UniProt Q923Y8); experiment: Radioligand binding assay on mouse TAAR1; conditions: read-out: Ki (μM) mouse
mouse TAAR1, sequence (Q923Y8 whole entry): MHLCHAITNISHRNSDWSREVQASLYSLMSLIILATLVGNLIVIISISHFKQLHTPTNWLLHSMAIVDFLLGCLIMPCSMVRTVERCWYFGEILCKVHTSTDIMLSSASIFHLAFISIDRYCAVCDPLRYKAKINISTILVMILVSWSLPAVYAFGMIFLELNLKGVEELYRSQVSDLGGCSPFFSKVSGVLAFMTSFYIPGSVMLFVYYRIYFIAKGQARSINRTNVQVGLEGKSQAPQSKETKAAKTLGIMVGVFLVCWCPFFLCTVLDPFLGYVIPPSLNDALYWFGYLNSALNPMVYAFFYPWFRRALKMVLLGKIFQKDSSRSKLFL
Procedure: as §1, §2
Radioligand Binding Assay on Mouse TAAR1
as §3
as §4, with “expressing mouse” for “expressing rat”

[1] = rat TAAR1, HEK-293 membranes, second value of cell mouse/rat
[2] = mouse TAAR1, HEK-293 membranes, first value of cell mouse/rat

rat TAAR1, sequence (Q923Y9 whole entry): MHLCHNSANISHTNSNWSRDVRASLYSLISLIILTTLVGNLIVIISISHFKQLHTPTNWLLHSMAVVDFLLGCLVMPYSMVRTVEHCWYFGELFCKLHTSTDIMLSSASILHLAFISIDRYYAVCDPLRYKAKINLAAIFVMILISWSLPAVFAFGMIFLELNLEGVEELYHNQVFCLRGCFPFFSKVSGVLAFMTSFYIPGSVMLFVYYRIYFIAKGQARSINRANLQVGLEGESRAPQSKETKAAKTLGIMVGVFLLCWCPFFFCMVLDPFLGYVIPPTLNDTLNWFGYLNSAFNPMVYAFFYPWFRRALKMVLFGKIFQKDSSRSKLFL

| Ki (rat TAAR1; [1]) [µM] | Ki (mouse TAAR1; [2]) [µM] | Compound | Ki (mouse TAAR1) [µM] | Ki (rat TAAR1) [µM] |
| --- | --- | --- | --- | --- |
| 0.0004 | 0.0005 | O=C(Nc1ccc(C2CCNC2)cc1)OCCc1cccc(Cl)c1 (racemic) [Example 121, (RS)-(4-Pyrrolidin-3-yl-phenyl)-carbamic acid 2-(3-chloro-phenyl)-ethyl ester] | – | – |
| 0.023 | 0.0048 | O=C(Nc1ccc([C@@H]2CNC[C@@H]2F)cc1)c1ccc(Cl)cc1 (racemic) [Example 69, 4-Chloro-N-[4-((3RS,4RS)-4-fluoro-pyrrolidin-3-yl)-phenyl]-benzamide hydrochloride] | – | – |
| 0.0223 | 0.0039 | COc1ccc2nc(C(=O)Nc3ccc(C4CCNC4)cc3)ccc2c1 (racemic) [Example 91, (RS)-6-Methoxy-quinoline-2-carboxylic acid (4-pyrrolidin-3-yl-phenyl)-amide hydrochloride] | – | – |
| 0.116 | 0.0051 | O=C(Nc1ccc(C2CCNC2)cc1)c1cc(Cl)ccn1 (racemic) [Example 86, (RS)-4-Chloro-pyridine-2-carboxylic acid (4-pyrrolidin-3-yl-phenyl)-amide hydrochloride] | – | – |
| 0.002 | 0.153 | O=C(Nc1ccc(CCC2CCCN2)cc1)c1ccc(F)cc1 (racemic) [Example 156, (RS)-4-Fluoro-N-[4-(2-pyrrolidin-2-yl-ethyl)-phenyl]-benzamide hydrochloride] | – | – |
| 0.0014 | 0.0608 | O=C(Nc1ccc(Cl)cc1)Nc1ccc(CCC2CCNC2)cc1 (racemic) [Example 116, (RS)-1-(4-Chloro-phenyl)-3-[4-(2-pyrrolidin-3-yl-ethyl)-phenyl]-urea hydrochloride] | – | – |
| 0.0072 | 0.0056 | CCCCc1ccc(NC(=O)Nc2ccc(C3CCNC3)cc2)c(C)c1 (racemic) [Example 1, (RS)-1-(4-Butyl-2-methyl-phenyl)-3-(4-pyrrolidin-3-yl-phenyl)-urea; hydrochloride] | – | – |
| 0.106 | 2.06 | O=C(Nc1ccc(CCC2CCCNC2)cc1)c1ncccc1F (racemic) [Example 134, (RS)-3-Fluoro-pyridine-2-carboxylic acid [4-(2-piperidin-3-yl-ethyl)-phenyl]-amide hydrochloride] | – | – |
| 0.0011 | 0.0026 | O=C(Nc1ccc(C2CNCCO2)cc1)c1ccc(Oc2ccc(Cl)cc2)cc1 (racemic) [Example 206, (RS)-4-(4-Chlorophenoxy)-N-(4-(morpholin-2-yl)phenyl)benzamide hydrochloride] | – | – |
| 0.0013 | 0.0004 | O=C(Nc1ccc(C2CCNC2)cc1)OCCc1ccc(Cl)cc1 (racemic) [Example 120, (RS)-(4-Pyrrolidin-3-yl-phenyl)-carbamic acid 2-(4-chloro-phenyl)-ethyl ester] | – | – |
| 0.0646 | 0.705 | CC(C(=O)Nc1ccc(C2CCCNC2)cc1)c1ccc(Cl)cc1 (racemic) [Example 103, (RS)-2-(4-Chloro-phenyl)-N—((RS)-4-piperidin-3-yl-phenyl)-propionamide] | – | – |

Continued, compound first:

| Compound | Ki (rat TAAR1; [1]) [µM] | Ki (mouse TAAR1; [2]) [µM] | Ki (mouse TAAR1) [µM] | Ki (rat TAAR1) [µM] |
| --- | --- | --- | --- | --- |
| CCCc1cnc(C(=O)Nc2ccc([C@@H]3CCCNC3)cc2)cn1 [Example 278, (S)—N-(4-(Piperidin-3-yl)phenyl)-5-propylpyrazine-2-carboxamide hydrochloride] | 0.0118 | – | 0.829 | – |
| O=C(Nc1ccc(C2CCCNC2)cc1)c1ncc(F)cc1F (racemic) [Example 106, (RS)-3,5-Difluoro-pyridine-2-carboxylic acid (4-piperidin-3-yl-phenyl)-amide hydrochloride] | 1.43 | 0.0248 | – | – |
| O=C(Nc1ccc(C2CCNC2)cc1)OC(c1ccc(Cl)cc1)C(F)(F)F (racemic) [Example 130, (RS)-(4-Pyrrolidin-3-yl-phenyl)-carbamic acid (RS)-1-(4-chloro-phenyl)-2,2,2-trifluoro-ethyl ester] | 0.0169 | 0.0017 | – | – |
| O=C(Nc1ccc(C2CNCCO2)cc1)c1ccc(C(F)(F)F)nc1 (racemic) [Example 272, (RS)—N-(4-(Morpholin-2-yl)phenyl)-6-(trifluoromethyl)nicotinamide hydrochloride] | – | 0.0214 | – | 0.0169 |
| O=C(Nc1ccc(C2CCNC2)cc1)Nc1ccc(Cl)nc1 (racemic) [Example 26, (RS)-1-(6-Chloro-pyridin-3-yl)-3-(4-pyrrolidin-3-yl-phenyl)-urea hydrochloride] | 0.0279 | 0.0112 | – | – |
| CCOc1ccc(C(=O)Nc2ccc(C3CNCCO3)cc2)cn1 (racemic) [Example 245, (RS)-6-Ethoxy-N-(4-(morpholin-2-yl)phenyl)nicotinamide hydrochloride] | 0.0063 | 0.0649 | – | – |
| O=C(Nc1ccc(CCC2CCNC2)cc1)c1ccc(Cl)cc1 (racemic) [Example 109, (RS)-4-Chloro-N-[4-(2-pyrrolidin-3-yl-ethyl)-phenyl]-benzamide hydrochloride] | 0.0176 | 0.0017 | – | – |
| CCOc1ccc(C(=O)Nc2ccc([C@@H]3CNCCO3)cc2)cc1 [Example 275, (R)-4-Ethoxy-N-(4-(morpholin-2-yl)phenyl)benzamide hydrochloride] | – | 0.0082 | – | 0.0036 |
| O=C(Nc1ccc(Cl)cc1)Nc1ccc(C2CNCCO2)cc1 (racemic) [Example 292, (RS)-1-(4-Chlorophenyl)-3-(4-(morpholin-2-yl)phenyl)urea hydrochloride] | 0.001 | 0.001 | – | – |
| O=C(Nc1ccc([C@@H]2CNCCO2)cc1)Nc1ccc(C(F)(F)F)cc1 [Example 311, (R)-1-(4-(Morpholin-2-yl)phenyl)-3-(4-(trifluoromethyl)phenyl)urea hydrochloride] | – | 0.0005 | – | 0.0014 |
| CSc1ccc(C(=O)Nc2ccc(C3CNCCO3)cc2)cc1 (racemic) [Example 216, (RS)-4-(Methylthio)-N-(4-(morpholin-2-yl)phenyl)benzamide hydrochloride] | – | 0.0176 | – | 0.0012 |
| O=C(Nc1ccc([C@H]2CCCNC2)cc1)c1cccc(Cl)c1 [Example 151, (R)-3-Chloro-N-(4-(piperidin-3-yl)phenyl)benzamide hydrochloride] | 0.0008 | – | 0.011 | – |
| CO[C@H]1CC[C@H](C(=O)Nc2ccc(C3CNCCO3)cc2)CC1 (mixture of isomers) [Example 255, trans-(RS)-4-Methoxy-N-(4-(morpholin-2-yl)phenyl)cyclohexanecarboxamide hydrochloride] | 0.428 | 5.1 | – | – |
